From PubChem BioAssay (NCI)
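Step 1: Grow cells in 96-well plates. Step 2: Expose to compound for 48 hours at 5 concentrations. Step 3: Interpolate endpoints linearly; if unreached, use highest concentration. The concentration for 50% growth inhibition is given as GI50. TGI: concentration producing complete growth inhibition.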

Tests used:
Experiment in all cases: NCI anticancer screen, dose series, 48 h
[1] = system: 786-0 renal
[2] = system: EKVX NSCLC
[3] = system: UACC-62 melanoma
[4] = system: SK-MEL-28 melanoma
[5] = system: SW-620 colon
[6] = system: MDA-MB-435
[7] = system: MDA-MB-468 breast
[8] = system: A498 renal
[9] = system: NCI-H460 lung
[10] = system: HS 578T breast
[11] = system: K-562 leukemia
[12] = system: MOLT-4 leukemia
[13] = system: HOP-92 NSCLC
[14] = system: NCI-H23 lung
[15] = system: IGROV1 ovarian
[16] = system: CCRF-CEM leukemia
[17] = system: OVCAR-8 ovarian
[18] = system: U251 CNS
[19] = system: TK-10 renal
[20] = system: KM12 colon
[21] = system: LOX IMVI melanoma
[22] = system: T-47D breast
[23] = system: SNB-19 CNS
[24] = system: HCC-2998 colon
[25] = system: UACC-257 melanoma
[26] = system: SNB-75 CNS
[27] = system: SF-295 CNS
[28] = system: RXF 393 renal
[29] = system: SF-268 CNS
[30] = system: SN12C renal
[31] = system: CAKI-1 renal
[32] = system: HCT-116 colon
[33] = system: OVCAR-4 ovarian
[34] = system: MCF7 breast
[35] = system: MDA-MB-231 breast
[36] = system: RPMI-8226 leukemia
[37] = system: UO-31 renal
[38] = system: HL-60(TB) leukemia
[39] = system: NCI-H226 lung
[40] = system: PC-3 prostate
[41] = system: BT-549 breast
[42] = system: A549 NSCLC
[43] = system: HCT-15 colon
[44] = system: M14 melanoma
[45] = system: SF-539 CNS
[46] = system: NCI-H522 lung
[47] = system: DU-145 prostate
[48] = system: OVCAR-5 ovarian
[49] = system: SK-OV-3 ovarian
[50] = system: ACHN renal
[51] = system: COLO 205 colon
[52] = system: SK-MEL-5 melanoma
[53] = system: HOP-62 NSCLC
[54] = system: MALME-3M melanoma
[55] = system: OVCAR-3 ovarian
[56] = system: HT29 colon
[57] = system: SR leukemia

Work on `Clc1ccc(-c2ccc(OCCCN3CCN(c4ccncc4)CC3)cc2)cc1` yielded a GI50 [1] of 14 µM, a TGI [1] of 27.1 µM and a GI50 [2] of 12 µM. For the same compound, the TGI [2] was 27.9 µM, the GI50 [3] was 16.7 µM and the TGI [3] was 30.5 µM. For the same compound, the GI50 [4] was 15.3 µM, the TGI [4] was 29.2 µM and the GI50 [5] was 9.92 µM. The TGI [5] was 23.3 µM, the GI50 [6] was 11.1 µM and the TGI [6] was 23.5 µM. For the same compound, the GI50 [7] was 6.28 µM, the TGI [7] was 19.5 µM and the GI50 [8] was 15.8 µM. It also gave a TGI [8] of 29.6 µM, a GI50 [9] of 7.47 µM and a TGI [9] of 21.4 µM. It also gave a GI50 [10] of 17.9 µM, a TGI [10] of 45.3 µM and a GI50 [11] of 2.64 µM. It also gave a TGI [11] of over 100 µM, a GI50 [12] of 6.71 µM and a TGI [12] of over 100 µM. For the same compound, the GI50 [13] was 3.46 µM, the TGI [13] was 20.3 µM and the GI50 [14] was 13.9 µM. The TGI [14] was 29.1 µM, the GI50 [15] was 16.8 µM and the TGI [15] was 32.1 µM. The GI50 [16] was 4.65 µM, the TGI [16] was 24.1 µM and the GI50 [17] was 22 µM. It also gave a TGI [17] of 68.1 µM, a GI50 [18] of 11.8 µM and a TGI [18] of 25.4 µM. For the same compound, the GI50 [19] was 19.6 µM, the TGI [19] was 36.2 µM and the GI50 [20] was 14.5 µM. It also gave a TGI [20] of 29.7 µM, a GI50 [21] of 1.86 µM and a TGI [21] of 3.63 µM. The GI50 [22] was 16.2 µM, the TGI [22] was 40.2 µM and the GI50 [23] was 15.7 µM. It also gave a TGI [23] of 30 µM, a GI50 [24] of 13.3 µM and a TGI [24] of 26.6 µM. It also gave a GI50 [25] of 17.3 µM, a TGI [25] of 32.6 µM and a GI50 [26] of 14.9 µM. It also gave a TGI [26] of 32.5 µM, a GI50 [27] of 13.9 µM and a TGI [27] of 28.1 µM. The GI50 [28] was 6.74 µM, the TGI [28] was 20.6 µM and the GI50 [29] was 16.9 µM. For the same compound, the TGI [29] was 36.5 µM, the GI50 [30] was 13 µM and the TGI [30] was 26.3 µM. For the same compound, the GI50 [31] was 15.3 µM, the TGI [31] was 32.4 µM and the GI50 [32] was 2.73 µM. It also gave a TGI [32] of 10.4 µM, a GI50 [33] of 15.6 µM and a TGI [33] of 41.7 µM. For the same compound, the GI50 [34] was 6.19 µM, the TGI [34] was 21.2 µM and the GI50 [35] was 11.8 µM. It also gave a TGI [35] of 24.7 µM, a GI50 [36] of 6.95 µM and a TGI [36] of over 100 µM. It also gave a GI50 [37] of 14.7 µM, a TGI [37] of 29.6 µM and a GI50 [38] of 4.46 µM. For the same compound, the TGI [38] was 19.7 µM, the GI50 [39] was 20.8 µM and the TGI [39] was 55.8 µM. It also gave a GI50 [40] of 8.43 µM, a TGI [40] of 51.3 µM and a GI50 [41] of 11.7 µM. The TGI [41] was 25.9 µM, the GI50 [42] was 15.1 µM and the TGI [42] was 29.9 µM. It also gave a GI50 [43] of 1.88 µM, a TGI [43] of 3.82 µM and a GI50 [44] of 14.3 µM. It also gave a TGI [44] of 28.7 µM, a GI50 [45] of 12.5 µM and a TGI [45] of 25.4 µM. It also gave a GI50 [46] of 16.6 µM, a TGI [46] of 31.9 µM and a GI50 [47] of 17.9 µM. For the same compound, the TGI [47] was 55.4 µM, the GI50 [48] was 14.5 µM and the TGI [48] was 28.6 µM. The GI50 [49] was 15.5 µM, the TGI [49] was 30.4 µM and the GI50 [50] was 16.3 µM. For the same compound, the TGI [50] was 30.4 µM, the GI50 [51] was 7.31 µM and the TGI [51] was 20.6 µM. The GI50 [52] was 14.9 µM, the TGI [52] was 28.1 µM and the GI50 [53] was 14.7 µM. For the same compound, the TGI [53] was 29 µM, the GI50 [54] was 18.1 µM and the TGI [54] was 32.7 µM. It also gave a GI50 [55] of 13 µM, a TGI [55] of 30.2 µM and a GI50 [56] of 3.77 µM. It also gave a TGI [56] of 14.8 µM.
Work on `COc1ccc(C(SCCNCc2cc(N(C)C)ccn2)(c2ccccc2)c2ccccc2)cc1` yielded a GI50 [1] of 1.4 µM, a TGI [1] of 7.55 µM and a GI50 [2] of 1.5 µM. It also gave a TGI [2] of 17.1 µM, a GI50 [3] of 4.22 µM and a TGI [3] of 16.6 µM. For the same compound, the GI50 [4] was 5.6 µM, the TGI [4] was 18.7 µM and the GI50 [5] was 0.916 µM. The TGI [5] was 16.8 µM, the GI50 [6] was 0.214 µM and the TGI [6] was 0.475 µM. It also gave a GI50 [7] of 0.544 µM, a TGI [7] of 2.9 µM and a GI50 [8] of 15.6 µM. For the same compound, the TGI [8] was 30.1 µM, the GI50 [9] was 2.93 µM and the TGI [9] was 12.5 µM. The GI50 [10] was 1.37 µM, the TGI [10] was 9.32 µM and the GI50 [11] was 0.697 µM. It also gave a TGI [11] of 13.6 µM, a GI50 [12] of 3.47 µM and a TGI [12] of 13.6 µM. It also gave a GI50 [13] of 2.16 µM, a TGI [13] of 11 µM and a GI50 [14] of 3.12 µM. The TGI [14] was 13.1 µM, the GI50 [15] was 3.43 µM and the TGI [15] was 17.1 µM. For the same compound, the GI50 [16] was 0.468 µM, the TGI [16] was 15.4 µM and the GI50 [17] was 1.87 µM. The TGI [17] was 18.1 µM, the GI50 [18] was 0.592 µM and the TGI [18] was 13.6 µM. For the same compound, the GI50 [19] was 9.54 µM, the TGI [19] was 21.7 µM and the GI50 [20] was 3.66 µM. The TGI [20] was 16 µM, the GI50 [57] was 0.566 µM and the TGI [57] was over 100 µM. For the same compound, the GI50 [21] was 2.04 µM, the TGI [21] was 11.4 µM and the GI50 [22] was 4.7 µM. It also gave a TGI [22] of 21.9 µM, a GI50 [23] of 3.48 µM and a TGI [23] of 15.3 µM. The GI50 [24] was 0.7 µM, the TGI [24] was 2.14 µM and the GI50 [25] was 5.71 µM. It also gave a TGI [25] of 19.8 µM, a GI50 [26] of 2.86 µM and a TGI [26] of 13.6 µM. It also gave a GI50 [27] of 0.618 µM, a TGI [27] of 11.5 µM and a GI50 [28] of 2.61 µM. It also gave a TGI [28] of 11.5 µM, a GI50 [29] of 4.02 µM and a TGI [29] of 20.4 µM. The GI50 [30] was 1.49 µM, the TGI [30] was 13.7 µM and the GI50 [31] was 3.54 µM. For the same compound, the TGI [31] was 17.6 µM, the GI50 [32] was 0.324 µM and the TGI [32] was 10.5 µM. It also gave a GI50 [33] of 9.25 µM, a TGI [33] of 22.7 µM and a GI50 [34] of 0.322 µM. The TGI [34] was 11 µM, the GI50 [35] was 1.48 µM and the TGI [35] was 4.8 µM. The GI50 [36] was 0.954 µM, the TGI [36] was 10 µM and the GI50 [37] was 3.78 µM. It also gave a TGI [37] of 17.5 µM, a GI50 [38] of 2.11 µM and a TGI [38] of 5.28 µM. For the same compound, the GI50 [39] was 4.45 µM, the TGI [39] was 17.8 µM and the GI50 [40] was 1.67 µM. For the same compound, the TGI [40] was 15 µM, the GI50 [41] was 1.92 µM and the TGI [41] was 6.03 µM. For the same compound, the GI50 [42] was 3.79 µM, the TGI [42] was 20 µM and the GI50 [43] was 0.432 µM. It also gave a TGI [43] of 11.6 µM, a GI50 [44] of 0.447 µM and a TGI [44] of 2.48 µM. The GI50 [45] was 1.61 µM, the TGI [45] was 3.83 µM and the GI50 [46] was 0.707 µM. The TGI [46] was 5.77 µM, the GI50 [47] was 3.5 µM and the TGI [47] was 12.8 µM. It also gave a GI50 [48] of 3.07 µM, a TGI [48] of 11.9 µM and a GI50 [49] of 3.57 µM. It also gave a TGI [49] of 15.9 µM, a GI50 [50] of 2.48 µM and a TGI [50] of 18.5 µM. For the same compound, the GI50 [51] was 1.09 µM, the TGI [51] was 2.97 µM and the GI50 [52] was 1.08 µM. The TGI [52] was 3.82 µM, the GI50 [53] was 4.34 µM and the TGI [53] was 19.8 µM. It also gave a GI50 [54] of 3.36 µM, a TGI [54] of 15.8 µM and a GI50 [55] of 2.53 µM. The TGI [55] was 12.4 µM, the GI50 [56] was 2.25 µM and the TGI [56] was 5.66 µM.
